In ChEMBL document CHEMBL1130861, “Synthesis and proteinase inhibitory properties of diphenyl phosphonate analogues of aspartic and glutamic acids” (1998):

Key:
[1] = biological target: Granzyme B (Homo sapiens) (UniProt P10144); assay: Apparent second-order rate constant was determined by the inhibition of Granzyme B with the compound at the concentration 150 mM; ki/Ki(1/M*s), Not inhibited
[2] = tested on: Staphylococcus aureus; assay: Apparent second-order rate constant was determined by the inactivation of Staphylococcus aureus V8 proteinase with the compound at the concentration 100 mM(pH 7.4); ki/Ki(1/M*s); format: functional

Granzyme B (Homo sapiens), sequence (P10144 whole entry): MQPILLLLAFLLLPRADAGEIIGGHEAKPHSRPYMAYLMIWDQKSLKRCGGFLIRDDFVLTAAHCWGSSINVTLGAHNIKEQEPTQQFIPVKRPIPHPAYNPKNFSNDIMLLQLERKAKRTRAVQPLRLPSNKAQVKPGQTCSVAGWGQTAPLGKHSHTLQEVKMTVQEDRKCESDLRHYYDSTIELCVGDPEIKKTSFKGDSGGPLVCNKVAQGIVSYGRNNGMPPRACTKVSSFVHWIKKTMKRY

Compound | Activity [1] | Activity [2]
CC(=O)N[C@H](CC(=O)O)P(=O)(Oc1ccccc1)Oc1ccccc1 | No inhibition | 5
CC(=O)N[C@H](CCC(=O)O)P(=O)(Oc1ccccc1)Oc1ccccc1 | No inhibition | 5.3
